Reference: patent publication US20110300198A1, “HYDROCOLLOID - ESSENTIAL OIL PATCHES” (priority 2010, published 2011)

Experiments:
[1] = Preliminary in-vivo experiment, constituents in blood (GC, WAX column); design: species or system rat
[2] = Preliminary in-vivo experiment, constituents in urine (GC); conditions: male, Sprague-Dawley, rat, 7.5 % lavender essential oil in almond oil, collected urine sample, 84 h after the simulated massage
Text: Male Sprague-Dawley rats, weighing 300-350 g, were used in the studies (Harlan, Rehovot, Israel). The experimental protocols were approved by the Hebrew University of Jerusalem Committee on the Use and Care of Animals. Rats were maintained under specified-pathogen-free (SPF) conditions and were allowed to acclimate to the environment for at least 7 days before their use in the study. Rats were anesthetized and the fur on their stomach shaved prior to exposure. […] Each rat was housed in an individual cage in order to prevent oral contamination of the essential oil by one rat eating another's patch. Blood samples (0.5 ml) were taken at 0, 12, 24, 36, 48 and 60 h from a nick at the tip of tail to determine contents of essential-oil components. Rats were restrained and the tail was gently massaged to facilitate blood collection. […] Urine samples were similarly analyzed by gas chromatography (GC).
Similar values of camphor (FIG. 17) were detected following application of a lavender oil patch on the back and abdomen. […] In the blood of rats with an abdomen-adhered patch, more linalyl acetate was detected than in the blood of rats with a back patch. […] In a collected urine sample, 0.01265 mg L^−1 linalool and 0.00903 mg L^−1 linalyl acetate were detected. […] In addition, no traces of camphor were detected in the urine (note that the urine analysis was performed 84 h after the simulated massage).

[3] = In-vivo experiment with WAX column, constituents in blood; design: species or system rat; conditions: 7.5% lavender oil patch on abdomen; split injection
Text: Male Sprague-Dawley rats, weighing 300-350 g, were used in the studies (Harlan, Rehovot, Israel). The experimental protocols were approved by the Hebrew University of Jerusalem Committee on the Use and Care of Animals. Rats were maintained under specified-pathogen-free (SPF) conditions and were allowed to acclimate to the environment for at least 7 days before their use in the study. Rats were anesthetized and the fur on their stomach shaved prior to exposure. Gum karaya patches with and without lavender essential oil were applied to the rat's stomach skin. Each rat was housed in an individual cage in order to prevent oral contamination of the essential oil by one rat eating another's patch. Blood samples (0.5 ml) were taken at 0, 12, 24, 36, 48 and 60 h from a nick at the tip of tail to determine contents of essential-oil components. Rats were restrained and the tail was gently massaged to facilitate blood collection. Blood samples were collected in vials containing 0.1 ml heparin (100 kU, Sigma). A 10-μl volume of aqueous linalyl isovalerate stock solution was added as an internal standard to each blood sample and samples were stored at −80° C. […] Urine samples were similarly analyzed by gas chromatography (GC). […]
Patches that included lavender essential oil were adhered to the abdomen skin for 60 h. […] Between 12 and 36 h, a similar, non-significant change in levels was detected. […]

Row | Compound | Detection in blood ([1]; after rubbing with the almond-lavender oil mixture (massage)) | concentration at 84 h ([2]; in vivo) | Level in blood after 60 h [3] | Highest concentration in blood ([1]; 30 min after rubbing the skin with almond-lavender essential oil mixture) | Highest concentration in blood ([1]; 36 h after a 7.5% lavender essential oil patch was adhered to the abdomen) | Time for which the constituent was evident in the blood ([1]; after rubbing the skin with the almond-essential oil mixture) | concentration at 84 h ([2]; topical)
1 | C=CC(C)(CCC=C(C)C)OC(C)=O (stereo not shown) [Linalyl acetate] | No linalyl acetate was detected | 9.03 ng/mL |  |  |  |  | 
2 | C=CC(C)(O)CCC=C(C)C (stereo not shown) [Linalool] |  |  | no traces | 0.32 mg/L | 0.48 mg/L | 80 min | 12.7 ng/mL
